Experimental data: US20080221128A1, “Metalloprotease inhibitors containing a squaramide moiety” (priority 2007, published 2008)
Like-named read-outs stand apart in the source and are kept apart here.

How the values were obtained:
Format in all cases: biochemical
[1] = target: T1, MMP-13 (Homo sapiens, UniProt P45452); test: Assay for determining MMP-13 inhibition (fluorescent substrate); details: catalytic domain of MMP-13
T1 construct: stock solution of catalytic domain of MMP-13 enzyme (produced by Alantos or commercially available from Invitek (Berlin), Cat.# 30100812); purchased Invitek (Berlin) 30100812
Description: The typical assay for MMP-13 activity is carried out in assay buffer comprised of 50 mM Tris, pH 7.5, 150 mM NaCl, 5 mM CaCl2 and 0.05% Brij-35. Different concentrations of tested compounds are prepared in assay buffer in 50 μL aliquots. 10 μL of a 50 nM stock solution of catalytic domain of MMP-13 enzyme (produced by Alantos or commercially available from Invitek (Berlin), Cat.# 30100812) is added to the compound solution. The mixture of enzyme and compound in assay buffer is thoroughly mixed and incubated for 10 min at room temperature. Upon the completion of incubation, the assay is started by addition of 40 μL of a 12.5 μM stock solution of MMP-13 fluorescent substrate (Calbiochem, Cat. No. 444235). The time-dependent increase in fluorescence is measured at the 320 nm excitation and 390 nm emission by automatic plate multireader. The IC50 values are calculated from the initial reaction rates.

[2] = target: T2, MMP-8 (Homo sapiens, UniProt P22894); test: Assay for determining MMP-8 inhibition (fluorescent substrate); details: activated MMP-8 enzyme; upper bound class
T2 construct: purchased Calbiochem 444229
T2 sequence (P22894 101-467): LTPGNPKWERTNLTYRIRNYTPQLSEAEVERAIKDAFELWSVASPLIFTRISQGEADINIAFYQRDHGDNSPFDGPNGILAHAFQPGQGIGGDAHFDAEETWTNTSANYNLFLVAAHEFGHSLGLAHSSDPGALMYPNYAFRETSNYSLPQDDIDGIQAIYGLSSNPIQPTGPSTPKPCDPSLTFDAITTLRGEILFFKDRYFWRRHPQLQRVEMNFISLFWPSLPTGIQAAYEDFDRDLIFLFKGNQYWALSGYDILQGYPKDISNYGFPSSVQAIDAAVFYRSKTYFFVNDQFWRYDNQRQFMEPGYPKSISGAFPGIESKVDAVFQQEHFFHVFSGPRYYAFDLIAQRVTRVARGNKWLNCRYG
Description: The typical assay for MMP-8 activity is carried out in assay buffer comprised of 50 mM Tris, pH 7.5, 150 mM NaCl, 5 mM CaCl2 and 0.05% Brij-35. Different concentrations of tested compounds are prepared in assay buffer in 50 μL aliquots. 10 μL of a 50 nM stock solution of activated MMP-8 enzyme (Calbiochem, Cat. No. 444229) is added to the compound solution. The mixture of enzyme and compound in assay buffer is thoroughly mixed and incubated for 10 min at 37° C. Upon the completion of incubation, the assay is started by addition of 40 μL of a 10 μM stock solution of OmniMMP fluorescent substrate (Biomol, Cat. No. P-126). The time-dependent increase in fluorescence is measured at the 320 nm excitation and 390 nm emission by an automatic plate multireader at 37° C. The IC50 values are calculated from the initial reaction rates.

[3] = target: T3, MMP-3 (Homo sapiens, UniProt P08254); test: Assay for determining MMP-3 inhibition (fluorescent substrate); details: catalytic domain of MMP-3
T3 construct: stock solution of the catalytic domain of MMP-3 enzyme (Biomol, Cat. No. SE-109); purchased Biomol SE-109
T3 sequence (P08254 100-272 limits assumed): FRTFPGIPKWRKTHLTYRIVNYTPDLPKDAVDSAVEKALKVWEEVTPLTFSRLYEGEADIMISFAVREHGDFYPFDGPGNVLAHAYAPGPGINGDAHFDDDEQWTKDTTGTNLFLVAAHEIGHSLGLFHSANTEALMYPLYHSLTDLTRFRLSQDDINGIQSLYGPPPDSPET
Description: The typical assay for MMP-3 activity is carried out in assay buffer comprised of 50 mM MES, pH 6.0, 10 mM CaCl2 and 0.05% Brij-35. Different concentrations of tested compounds are prepared in assay buffer in 50 μL aliquots. 10 μL of a […] stock solution of the catalytic domain of MMP-3 enzyme (Biomol, Cat. No. SE-109) is added to the compound solution. The mixture of enzyme and compound in assay buffer is thoroughly mixed and incubated for 10 min at room temperature. Upon the completion of incubation, the assay is started by addition of 40 μL of a 12.5 μM stock solution of NFF-3 fluorescent substrate (Calbiochem, Cat. No. 480-455). The time-dependent increase in fluorescence is measured at the 330 nm excitation and 390 nm emission by an automatic plate multireader. The IC50 values are calculated from the initial reaction rates.

[4] = upper bound class, read-out: MMP-13 inhibition activity (IC50 MMP-13)
[5] = upper bound class, read-out: MMP-3 inhibition activity (IC50 MMP-3)

| IC50 [1, 4] [nM] | IC50 [2] [nM] | IC50 [3, 5] [nM] | IC50 ([1]; range bounds printed with own units (nM to μM), read-out: MMP-13 inhibition activity (IC50 MMP-13), range) [nM] | IC50 ([3]; range bounds printed with own units (nM to μM), read-out: MMP-3 inhibition activity (IC50 MMP-3), range) [nM] | SMILES |
| --- | --- | --- | --- | --- | --- |
| < 100 | < 250 | < 250 |  |  | Nc1c(N2CCc3ccc(CNC(=O)c4nc5sc6c(c5c(=O)[nH]4)CCC4(C6)OCCO4)cc3C2)c(=O)c1=O [1/8] |
| < 100 |  |  |  |  | Cc1nc(C(=O)NCc2ccc3c(c2)CN(c2c(N)c(=O)c2=O)CC3)[nH]c(=O)c1C [Example 1/2] |
| < 100 | < 250 | < 250 |  |  | Cc1csc2nc(C(=O)NCc3ccc4c(c3)CN(c3c(N)c(=O)c3=O)CC4)[nH]c(=O)c12 [Example 1/3] |
|  |  |  | 100 to 20000 | 250 to 20000 | Nc1c(N2CCc3ccc(CNC(=O)c4ncc(-c5ccc(F)cc5)c(=O)[nH]4)cc3C2)c(=O)c1=O [Example 1] |
